24 compounds from patent US10669272B2, “Substituted naphthyridinone compounds useful as T cell activators” (BRISTOL-MYERS SQUIBB COMPANY, priority 2018, dated 2020) can be followed below.

Like-named read-outs stand apart in the source and are kept apart here.

Experiment [1] addresses T1, human DGKα (Homo sapiens, UniProt P23743).
T1 construct: TVMV protease cleavage site (C); Hexa-His (C); made in house; host or cells: Sf9 insect cells (baculovirus, Bac-to-Bac)
Nature of the experiment: DGKα LIPGLO assay (extruded liposome substrate), in vitro DGK inhibition. It counts as biochemical. The following applies: DGKα liposome (LIPGLO) assay; read-out: DGKa LIPGLO IC50.

Experiment [2] has as its target T2, human DGKζ (Homo sapiens, UniProt Q13574).
T2 construct: TVMV protease cleavage site (C); Hexa-His (C); made in house; host or cells: Sf9 insect cells (baculovirus, Bac-to-Bac)
The experiment is described as follows: DGKζ LIPGLO assay (extruded liposome substrate), in vitro DGK inhibition. It counts as biochemical. The settings on record: DGKζ liposome (LIPGLO) assay; read-out: DGKz LIPGLO IC50.

Experiment [3] relates to Human venous whole blood. Nature of the experiment: Human whole blood IFN-γ assay.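 Also: blood from healthy donors exposed to compound for 1 h before stimulation with anti-CD3 and anti-CD28 at 1 µg/mL each, IFN-γ quantified in supernatant by AlphaLISA.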 In kind it is cell-based. The settings on record: human whole blood, anti-CD3 plus anti-CD28, 24 hours, 3 μM reference compound = 100% activation, read-out: INFg Whole Blood Normalized Agonist EC50.
Protocol: Human Whole Blood IFN-γ Assay
Human venous whole blood (22.5 μL per well), obtained from healthy donors, was pre-treated with compounds for one hour at 37° C. in a humidified 95% air/5% CO2 incubator. The blood was stimulated with 2.5 μL anti-human CD3 and anti-CD28 mAb at a final concentration of 1 μg/mL each for 24 hours at 37° C. IFN-γ in the supernatants was measured using AlphLISA kit (Cat # AL217).

T2 sequence (Q13574 with tags, fused parts or gaps isoform Q13574-4): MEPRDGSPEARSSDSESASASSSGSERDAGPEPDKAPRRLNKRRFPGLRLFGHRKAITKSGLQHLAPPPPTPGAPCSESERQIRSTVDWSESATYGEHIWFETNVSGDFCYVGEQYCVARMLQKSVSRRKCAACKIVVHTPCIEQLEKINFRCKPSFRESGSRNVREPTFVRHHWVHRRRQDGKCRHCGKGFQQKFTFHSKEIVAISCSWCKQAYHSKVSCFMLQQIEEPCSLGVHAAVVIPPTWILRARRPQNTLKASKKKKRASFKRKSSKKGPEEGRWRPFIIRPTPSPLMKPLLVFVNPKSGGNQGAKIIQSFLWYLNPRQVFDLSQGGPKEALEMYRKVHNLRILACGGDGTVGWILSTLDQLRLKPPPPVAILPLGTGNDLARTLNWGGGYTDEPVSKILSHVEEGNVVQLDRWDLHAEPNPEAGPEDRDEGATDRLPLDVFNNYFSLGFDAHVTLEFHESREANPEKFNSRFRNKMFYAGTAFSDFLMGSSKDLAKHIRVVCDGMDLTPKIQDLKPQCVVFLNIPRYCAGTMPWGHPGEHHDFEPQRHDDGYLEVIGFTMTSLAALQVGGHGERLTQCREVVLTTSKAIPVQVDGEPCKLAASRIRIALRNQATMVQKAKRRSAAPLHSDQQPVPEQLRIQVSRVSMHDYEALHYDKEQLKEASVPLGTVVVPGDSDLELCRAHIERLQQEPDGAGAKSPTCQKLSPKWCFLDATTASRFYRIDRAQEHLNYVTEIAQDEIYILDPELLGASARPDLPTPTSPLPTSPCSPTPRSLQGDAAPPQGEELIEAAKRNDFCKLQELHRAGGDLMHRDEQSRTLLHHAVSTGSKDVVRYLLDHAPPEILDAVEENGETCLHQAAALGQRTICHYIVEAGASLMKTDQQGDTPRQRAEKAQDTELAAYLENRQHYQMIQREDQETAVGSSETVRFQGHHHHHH
T1 sequence (P23743 with tags, fused parts or gaps): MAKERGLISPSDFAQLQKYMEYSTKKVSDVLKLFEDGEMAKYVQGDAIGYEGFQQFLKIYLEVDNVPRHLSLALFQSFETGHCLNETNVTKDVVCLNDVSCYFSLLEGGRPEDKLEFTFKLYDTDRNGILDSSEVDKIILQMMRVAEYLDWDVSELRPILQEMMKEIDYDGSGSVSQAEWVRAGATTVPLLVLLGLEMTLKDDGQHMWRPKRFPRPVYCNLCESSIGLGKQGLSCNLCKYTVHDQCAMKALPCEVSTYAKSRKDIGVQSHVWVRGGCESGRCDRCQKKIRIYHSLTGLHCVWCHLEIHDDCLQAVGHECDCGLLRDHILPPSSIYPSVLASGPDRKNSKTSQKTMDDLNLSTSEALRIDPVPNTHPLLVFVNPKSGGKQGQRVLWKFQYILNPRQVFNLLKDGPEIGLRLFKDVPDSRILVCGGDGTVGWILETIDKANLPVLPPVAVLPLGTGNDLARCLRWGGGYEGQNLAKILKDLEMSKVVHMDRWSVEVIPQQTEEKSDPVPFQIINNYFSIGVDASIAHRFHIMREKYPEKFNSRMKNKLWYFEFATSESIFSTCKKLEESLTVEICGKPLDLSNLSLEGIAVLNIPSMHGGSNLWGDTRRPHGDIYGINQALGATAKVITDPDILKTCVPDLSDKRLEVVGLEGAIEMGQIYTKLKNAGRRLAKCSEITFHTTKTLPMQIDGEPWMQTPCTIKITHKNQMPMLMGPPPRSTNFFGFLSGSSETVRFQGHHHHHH

Usually IC50 stands for the midpoint of a concentration-inhibition curve. A word on the EC50: it is the concentration giving half of the maximal effect. For the compound `CCc1ccc(C(c2ccc(F)cc2)N2C[C@H](C)N(c3c(C#N)c(=O)n(C)c4ccc(C#N)nc34)C[C@H]2C)cc1` (single isomer, unassigned) [Example 812], the IC50 in experiment [1] turned out to be 17 µM; in experiment [2], 0.51 µM. Also, in experiment [3], the EC50 came out at 2.8 µM.
On the same counts, the results for `C[C@@H]1CN(c2c(C#N)c(=O)n(C)c3ccc(C#N)nc23)[C@@H](C)CN1C(c1ccccc1)c1cc(F)cc(F)c1` (single isomer, unassigned) [Example 813] are 85 µM, 3.7 µM and 20 µM.
Consider `C[C@@H]1CN(c2c(C#N)c(=O)n(C)c3ccc(C#N)nc23)[C@@H](C)CN1C(c1ccccc1)c1cc(F)cc(F)c1` (single isomer, unassigned) [Example 814], for which the IC50 in experiment [1] was 35 µM; in experiment [2], 1 µM. Further, the EC50 in experiment [3] stood at 5.5 µM.
Turning to `C[C@@H]1CN(c2c(C#N)c(=O)n(C)c3ccc(C#N)nc23)[C@@H](C)CN1C(c1ccc(Cl)cc1)c1ncccc1F` (single isomer, unassigned) [Example 819], the IC50 in experiment [1] is 2.3 µM; in experiment [2], 2.9 µM. Further, the EC50 in experiment [3] (Homo sapiens, 24 h) is 2.2 µM.
On the same counts, the results for `C[C@@H]1CN(c2c(C#N)c(=O)n(C)c3ccc(C#N)nc23)[C@@H](C)CN1C(c1ccc(F)cc1)c1ncccc1F` (single isomer, unassigned) [Example 820] are 0.92 µM, 2 µM and 2.2 µM.
Take `C[C@@H]1CN(c2c(C#N)c(=O)n(C)c3ccc(C#N)nc23)[C@@H](C)CN1C(c1ccc(F)cc1)c1ncccc1F` (single isomer, unassigned) [Example 821]: the IC50 came out at 2.7 µM in experiment [1] and 6.5 µM in experiment [2]. Moreover, the EC50 in experiment [3] was 3.4 µM.
On the same counts, the results for `C[C@@H]1CN(c2c(C#N)c(=O)n(C)c3ccc(C#N)nc23)[C@@H](C)CN1C(c1ccc(Cl)cc1)c1ncccc1F` (single isomer, unassigned) [Example 822] are 2.7 µM, 13 µM and 3.2 µM.
With `C[C@@H]1CN(c2c(C#N)c(=O)n(C)c3ccc(C#N)nc23)[C@@H](C)CN1C(c1ccc(F)cc1)c1ccc(C#N)cc1` (single isomer, unassigned) [Example 823], the IC50 in experiment [1] is 18 µM; in experiment [2] it was 40 µM. For the same compound, the EC50 in experiment [3] was 7.6 µM.
The like results for `C[C@@H]1CN(c2c(C#N)c(=O)n(C)c3ccc(C#N)nc23)[C@@H](C)CN1C(c1ccc(F)cc1)c1ccc(C#N)cc1` (single isomer, unassigned) [Example 824] were, in that order, 16 µM, 11 µM and 3.2 µM.
Consider `C[C@@H]1CN(c2c(C#N)c(=O)n(C)c3ccc(C#N)nc23)[C@@H](C)CN1C(c1ccc(Cl)cc1)c1ccc(F)cn1` (single isomer, unassigned) [Example 829], for which the figures for the IC50 in experiment [1] and in experiment [2] were 5.5 µM and 8 µM, respectively. Moreover, in experiment [3] (Homo sapiens, 24 h), the EC50 was 1.2 µM.
`C[C@@H]1CN(c2c(C#N)c(=O)n(C)c3ccc(C#N)nc23)[C@@H](C)CN1C(c1ccc(Cl)cc1)c1ccc(F)cn1` (single isomer, unassigned) [Example 830]: the IC50 is 1.5 µM in experiment [1] and 9.6 µM in experiment [2]. Also, in experiment [3], the EC50 stood at 1.9 µM.
Turning to `C[C@@H]1CN(c2c(C#N)c(=O)n(C)c3ccc(C#N)nc23)[C@@H](C)CN1C(c1ccc(F)cc1)c1ccc(C(F)(F)F)cn1` (single isomer, unassigned) [Example 836], the IC50 in experiment [1] came out at 4.7 µM; in experiment [2], 4.9 µM. Further, the EC50 in experiment [3] (Homo sapiens, 24 h) stood at 1.1 µM.
As to `C[C@@H]1CN(c2c(C#N)c(=O)n(C)c3ccc(C#N)nc23)[C@@H](C)CN1C(c1cccc(F)c1)c1ccc(C(F)(F)F)cn1` (single isomer, unassigned) [Example 840], the IC50 in experiment [1] was found to be 22 µM; in experiment [2] it was 2.8 µM. In experiment [3], the EC50 was found to be 0.81 µM.
On to `C[C@@H]1CN(c2c(C#N)c(=O)n(C)c3ccc(C#N)nc23)[C@@H](C)CN1C(c1cccc(F)c1)c1ccc(C(F)(F)F)cn1` (single isomer, unassigned) [Example 841], for which the IC50 was 83 µM in experiment [1] and 11 µM in experiment [2]. The EC50 in experiment [3] came to 3.3 µM.
Turning to `C[C@@H]1CN(c2c(C#N)c(=O)n(C)c3ccc(C#N)nc23)[C@@H](C)CN1C(c1ccc(F)cc1)c1ccccn1` (single isomer, unassigned) [Example 842], the IC50 in experiment [1] came out at 1.2 µM; in experiment [2], 3.3 µM. The EC50 in experiment [3] turned out to be 20 µM.
On to `C[C@@H]1CN(c2c(C#N)c(=O)n(C)c3ccc(C#N)nc23)[C@@H](C)CN1C(c1ccc(F)cc1)c1ccccn1` (single isomer, unassigned) [Example 843], for which the figures for the IC50 in experiment [1] and in experiment [2] were 0.75 µM and 0.88 µM, respectively. For the same compound, the EC50 in experiment [3] was 3.8 µM.
Consider `C[C@@H]1CN(c2c(C#N)c(=O)n(C)c3ccc(C#N)nc23)[C@@H](C)CN1C(c1ccc(F)cc1)c1cccc(C(F)(F)F)n1` (single isomer, unassigned) [Example 844], for which the IC50 was determined as 100 µM in experiment [1] and 5.2 µM in experiment [2]. Moreover, the EC50 in experiment [3] (Homo sapiens, 24 h) was 2.7 µM.
Consider `C[C@@H]1CN(c2c(C#N)c(=O)n(C)c3ccc(C#N)nc23)[C@@H](C)CN1C(c1ccc(F)cc1)c1cccc(C(F)(F)F)n1` (single isomer, unassigned) [Example 845], for which the IC50 in experiment [1] stood at 2.5 µM; in experiment [2], 6.2 µM. In addition, the EC50 in experiment [3] was 1.5 µM.
The like results for `C[C@@H]1CN(c2c(C#N)c(=O)n(C)c3ccc(C#N)nc23)[C@@H](C)CN1C(c1ccc(F)cc1)c1ccon1` (single isomer, unassigned) [Example 850] were, in that order, 0.51 µM, 5.4 µM and 3.6 µM.
The like results for `C[C@@H]1CN(c2c(C#N)c(=O)n(C)c3ccc(C#N)nc23)[C@@H](C)CN1C(c1ccc(F)cc1)c1ccon1` (single isomer, unassigned) [Example 851] were, in that order, 1.3 µM, 27 µM and 20 µM.
Take `C[C@@H]1CN(c2c(C#N)c(=O)n(C)c3ccc(C#N)nc23)[C@@H](C)CN1C(c1ccc(F)cc1)c1cn(C)cn1` (single isomer, unassigned) [Example 853]: the values for the IC50 in experiment [1] and in experiment [2] were 19 µM and 38 µM, respectively. In addition, the EC50 in experiment [3] (Homo sapiens, 24 h) was found to be 20 µM.
On the same counts, the results for `C[C@@H]1CN(c2c(C#N)c(=O)n(C)c3ccc(C#N)nc23)[C@@H](C)CN1C(c1ccc(F)cc1)c1ccns1` (single isomer, unassigned) [Example 854] are 5.1 µM, 1.9 µM and 10 µM.
On the same counts, the results for `C[C@@H]1CN(c2c(C#N)c(=O)n(C)c3ccc(C#N)nc23)[C@@H](C)CN1C(c1ccc(F)cc1)c1cscn1` (single isomer, unassigned) [Example 857] are 1 µM, 1.9 µM and 1.4 µM.
`C[C@@H]1CN(c2c(C#N)c(=O)n(C)c3ccc(C#N)nc23)[C@@H](C)CN1C(c1ccc(F)cc1)c1csc(C2CC2)n1` (single isomer, unassigned) [Example 858]: the results for the IC50 in experiment [1] and in experiment [2] were 0.48 µM and 0.15 µM, respectively. Further, the EC50 in experiment [3] stood at 1.7 µM.
